# Legend:
# panel of 442 kinases [1] = target: T1, panel of 442 kinases (Homo sapiens, UniProt Q9BRS2); format: binding; conditions: Compound Concentration 10 µM
# T1 construct: purchased KINOMEscan
# T1 sequence (Q9BRS2 1-568): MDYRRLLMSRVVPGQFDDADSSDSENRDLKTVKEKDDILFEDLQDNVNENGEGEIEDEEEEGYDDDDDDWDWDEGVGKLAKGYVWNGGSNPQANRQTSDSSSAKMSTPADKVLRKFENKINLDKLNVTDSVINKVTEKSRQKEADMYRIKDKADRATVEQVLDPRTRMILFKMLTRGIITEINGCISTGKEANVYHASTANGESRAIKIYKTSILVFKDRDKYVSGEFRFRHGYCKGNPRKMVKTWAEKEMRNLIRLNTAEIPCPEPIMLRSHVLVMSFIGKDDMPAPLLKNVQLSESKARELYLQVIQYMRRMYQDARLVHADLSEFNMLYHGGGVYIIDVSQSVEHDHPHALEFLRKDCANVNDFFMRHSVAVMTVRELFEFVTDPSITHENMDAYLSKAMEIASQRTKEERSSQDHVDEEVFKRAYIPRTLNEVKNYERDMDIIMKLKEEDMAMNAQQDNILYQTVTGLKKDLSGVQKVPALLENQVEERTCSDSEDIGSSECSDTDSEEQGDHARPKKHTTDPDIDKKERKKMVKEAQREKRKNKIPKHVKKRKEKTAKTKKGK
# Text: (§1) We assessed the selectivity of members of this scaffold using the KINOMEscan methodology across a near comprehensive panel of 442 kinases [[18,27]].
# panel of 442 kinases [2] = target: T2, panel of 442 kinases (Homo sapiens, UniProt P00533, G719C); format: binding; conditions: Compound Concentration 10 µM
# T2 construct: purchased KINOMEscan
# T2 sequence (P00533 25-1210 G719C): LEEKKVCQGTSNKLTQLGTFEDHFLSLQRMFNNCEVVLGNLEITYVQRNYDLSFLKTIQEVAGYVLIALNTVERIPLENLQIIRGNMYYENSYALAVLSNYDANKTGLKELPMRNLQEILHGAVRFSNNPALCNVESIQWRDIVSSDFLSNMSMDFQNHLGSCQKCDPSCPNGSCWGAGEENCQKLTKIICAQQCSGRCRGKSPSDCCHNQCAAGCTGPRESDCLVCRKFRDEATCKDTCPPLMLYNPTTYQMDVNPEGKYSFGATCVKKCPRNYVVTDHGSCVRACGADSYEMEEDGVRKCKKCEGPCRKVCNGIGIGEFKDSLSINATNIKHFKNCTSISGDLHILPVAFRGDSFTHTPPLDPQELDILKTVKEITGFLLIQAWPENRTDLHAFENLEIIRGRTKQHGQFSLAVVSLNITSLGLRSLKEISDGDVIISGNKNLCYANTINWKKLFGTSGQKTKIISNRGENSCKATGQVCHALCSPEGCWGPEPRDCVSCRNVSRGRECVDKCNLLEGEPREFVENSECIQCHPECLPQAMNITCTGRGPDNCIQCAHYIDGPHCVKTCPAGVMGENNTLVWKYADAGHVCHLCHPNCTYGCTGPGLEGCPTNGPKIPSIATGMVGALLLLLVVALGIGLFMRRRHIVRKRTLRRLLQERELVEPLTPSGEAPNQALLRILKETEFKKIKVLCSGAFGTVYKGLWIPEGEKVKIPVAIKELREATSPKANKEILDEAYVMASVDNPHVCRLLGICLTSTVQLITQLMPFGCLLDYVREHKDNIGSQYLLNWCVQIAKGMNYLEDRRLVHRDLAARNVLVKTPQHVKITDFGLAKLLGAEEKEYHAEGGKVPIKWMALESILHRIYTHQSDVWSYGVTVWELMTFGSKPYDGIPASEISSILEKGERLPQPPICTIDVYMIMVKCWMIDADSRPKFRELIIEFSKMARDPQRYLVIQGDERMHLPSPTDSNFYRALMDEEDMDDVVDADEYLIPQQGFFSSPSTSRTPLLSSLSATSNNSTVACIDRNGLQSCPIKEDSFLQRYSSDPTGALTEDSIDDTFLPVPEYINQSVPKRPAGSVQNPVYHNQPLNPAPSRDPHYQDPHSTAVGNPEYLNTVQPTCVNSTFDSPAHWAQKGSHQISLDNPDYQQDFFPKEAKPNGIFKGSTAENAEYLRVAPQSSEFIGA
# Text: as §1
SMILES,KINOMEscan: RIOK1 (panel of 442 kinases [1]),KINOMEscan: EGFR(G719C) (panel of 442 kinases [2])
COc1cc(C(=O)N2CCC(N3CCN(C)CC3)CC2)ccc1Nc1ncc2c(n1)N(C)c1ccccc1C(=O)N2C [15 (LRRK2-IN-1)],100,100
CCOc1cc(C(=O)N2CCC(N3CCN(C)CC3)CC2)ccc1Nc1ncc2c(n1)N(C1CCCC1)c1ccccc1C(=O)N2C [Compound 26],100,100
COc1cc(C(=O)N2CCC(N3CCN(C)CC3)CC2)ccc1Nc1ncc2c(n1)N1CCc3cccc(c31)C(=O)N2C [Compound 24],,66
"COc1cc(C(=O)N2CCC(N3CCN(C)CC3)CC2)ccc1Nc1ncc2c(n1)N(C1CCCC1)c1ccccc1C(=O)N2C [Compound 25, 11-cyclopentyl-2-((2-methoxy-4-(4-(4-methylpiperazin-1-yl)piperidine-1-carbonyl)phenyl)amino)-5-methyl-5H-benzo[e]pyrimido[5,4-b][1,4]diazepin-6(11H)-one]",76,71

# Reference: article PMC3914206
